The nature of one data set: pKa. The settings on record: 66% aqueous dimethylformamide, 66% aqueous dimethyl formamide.
Data set [1] can be described thus: Acute toxicity in male CF 1 mice. The settings on record: mouse, in vivo. As to the method:
Similarly, in another series of tests the acute toxicity of antibiotics 67-121A, 67-121B and 67121C were determined in male CF 1 mice.

Data set [2] concerns Candida albicans. Briefly: In vivo protective activity in mice against Candida albicans, single dose one hour after infection. Set-up: species or system CF 1 mice. As to conditions: read-out: PD50. How it is done:
(§1) The in vivo protective activity of the antibiotic products in mice (Carworth farm CF 1 mice, each weighing about 20 g.) against Candida albicans was determined. The antibiotic was administered by the stated route in an aqueous vehicle containing 0.5% carboxymethyl cellulose and in two doses. One dose was administered shortly before intravenous infection with a lethal dose of Candida albicans and the other dose was administered 4 hours after infection. Most of the unprotected control mice died within 24 to 48 hours after infection. The survival rate was determined at the end of 24 and 48 hours and from this using standard procedures the PD50 values were determined.
The PD50 values for antibiotics 67-121A, 67-121B and 67-121C using CF 1 mice were determined using essentially the above described method, with the exception that the antibiotic was administered as a single dose one hour after infection with Candida albicans.
The PD50 values were determined on survivors 72 hours after infection. Of the untreated, infected control mice, 80% died within 24 hours and 100% within 48 hours.

A short description of another data set: physchem. The settings on record: 66% aqueous dimethylformamide.
Another data set relates to Torulopsis. Briefly: In vitro antifungal activity, MIC by tube dilution. The class given is cell-based. The settings on record: two strains of Torulopsis; same conditions (48 hours). How it is done: (§2) For reference, data on candicidin are also given. The quoted minimal inhibitory concentrations (MIC) were obtained by conventional tube dilution techniques using Sabouraud's dextrose broth.
(§3) As representative of the component antibiotics, antibiotic 67-121A and antibiotic 67-121C were tested in the same manner as the complex. Antibiotic 67-121A gave MIC values of from less than 0.01 up to 0.03 meg/ml. against 18 strains of Candida albicans, while antibiotic 67-121C gave MIC values of 0.05 to 0.3 meg/ml. against 9 strains of Candida albicans after incubation times of 48 hours. Further testing of antibiotic 67-121C under the same conditions gave MIC values of 0.3 meg/ml. against two strains of Torulopsis and a single strain of Cryotococcus.

For another data set, the system named is Cryotococcus. Briefly: In vitro antifungal activity, MIC by tube dilution. It counts as cell-based. As to conditions: single strain; same conditions (48 hours). As to the method:
as §2, §3

The test system of data set [3] is Candida albicans. Briefly: In vitro antifungal activity, MIC by tube dilution (Sabouraud's dextrose broth). It counts as cell-based. As to the method:
as §2, §3

A further data set has as its system Terulopsis glabrata. Briefly: In vitro antifungal activity, MIC by tube dilution. It counts as cell-based.
Description: as §2

In data set [4] the test system is Trichophyton mentagrophytes. Briefly: In vitro antifungal activity, MIC by tube dilution. The settings on record: 72 hrs. The class given is cell-based.
Description: as §2

Another data set relates to Aspergillus niger. Briefly: In vitro antifungal activity, MIC by tube dilution. The settings on record: 72 hrs. It counts as cell-based.
Description: as §2

The subject of a further data set is Trichophyton soudanese. Briefly: In vitro antifungal activity, MIC by tube dilution. The class given is cell-based. As to conditions: strain 2; 72 hrs.
Description: as §2

Data set [5] concerns Candida albicans. Briefly: In vivo protective activity in mice against lethal Candida albicans infection, two doses. Set-up: species or system mice (Carworth farm CF 1). As to conditions: survivors 48 hours after infection. How it is done: as §1
The results obtained for the Antibiotic 67-121 complex are given in Table 5 together with data for candicidin (for comparison purposes). The PD50 values were determined on survivors 48 hours after infection.

For the next data set, the system named is mice. Briefly: Acute toxicity in mice. The class given is in vivo. How it is done:
The acute toxicity of the antibiotic 67-121 complex in mice was determined via intraperitoneal (I.P.) and subcutaneous (S.C.) administration. For comparison, the values of candicidin were determined.

[6] abbreviates: Oral, single dose one hour after infection, survivors 72 hours after infection.
[7] abbreviates: sc, Subcutaneous, single dose one hour after infection, survivors 72 hours after infection.

≈ marks a conversion by molar mass, not a printed value. Read-outs that look alike come from different tables or passages of the source. Bounds are passed on as bounds.

In general, pKa refers to the pH at which an ionisable group is half protonated. Higher therefore signals a weaker acid or stronger base. A word on the LD50: it is the dose expected to kill half of the subjects tested. The term MIC denotes the lowest concentration found to suppress growth.

On to `CNc1ccc(C(=O)CC(O)CCC(C)C2OC(=O)CC(O)CC(O)CC(O)CC(O)CC(O)CC(O)CC3(O)CC(O)C(C(=O)O)C(CC(OC4OC(C)C(O)C(N)C4O)C=CC=CC=CC=CC=CC=CC=CC2C)O3)cc1` (centres unmarked) [Antibiotic 67-121A], for which the pKa was 6 in the data set “pKa” (pka (COO^-)) and 9 in “pKa” (pka (NH3^+)). The 50% lethal dose (LD50) in data set [1] (ip, I.P.) was 2.4 mg/kg; in data set [1] (sc, S.C.), over 50 mg/kg; in [1] (Oral), over 50 mg/kg. For the same compound, the ED50 was 1.5 mg/kg with Candida albicans [2] (po, 72 h) and 2.5 mg/kg with Candida albicans [2] (sc, 72 h).
`CC1C=CC=CC=CC=CC=CC=CC=CC(OC2OC(C)C(O)C(N)C2O)CC2OC(O)(CC(O)CC(O)CC(O)CC(O)CC(O)CC(O)CC(=O)OC1C(C)CCC(O)CC(=O)c1ccc(N)cc1)CC(O)C2C(=O)O` (centres unmarked) [Antibiotic 67-121B]: the results for the 50% lethal dose (LD50) in [1] (ip), in [1] (po) and in data set [1] (sc) were 6 mg/kg, over 50 mg/kg and over 50 mg/kg, respectively. Further, the ED50 worked out at 18 mg/kg with Candida albicans [2] (setting [6]) and 15 mg/kg in the data set with Candida albicans [2] (setting [7]). In addition, the pKa in the data set “physchem” (pka (COO^-)) is 6.3; in the data set “physchem” (pka (NH3^+)), 9.
For `CNc1ccc(C(=O)CC(O)CCC(C)C2OC(=O)CC(O)CC(O)CC(O)CC(O)CC(O)CC(O)CC3(O)CC(O)C(C(=O)O)C(CC(OC4OC(C)C(OC5OC(CO)C(O)C(O)C5O)C(N)C4O)C=CC=CC=CC=CC=CC=CC=CC2C)O3)cc1` (centres unmarked) [Antibiotic 67-121C], the median lethal dose (LD50) in data set [1] (ip) stood at 6 mg/kg. The minimal inhibitory concentration (MIC) against Torulopsis and in the data set with Cryotococcus was 0.3 µg/mL (≈ 0.232 µM) throughout. Further, the results for the ED50 with Candida albicans [2] (setting [6]) and with Candida albicans [2] (setting [7]) were 1.5 mg/kg and 2.1 mg/kg, respectively. For the same compound, the pKa in the data set “physchem” (pka (COO^-)) stood at 6; in “physchem” (pka (NH3^+)), 9.
With Candicidin, the “Minimum Inhibitory Concentration (M.I.C.)” value in the data set on Candida albicans [3] (strain 401, 24 hrs.) came out at 0.8 meg/ml; in the data set with Candida albicans [3] (strain 401, 48 hrs.), 3.0 meg/ml; in the data set with Candida albicans [3] (strain 402, 24 hrs.), 0.03 meg/ml; in the data set on Candida albicans [3] (strain 402, 48 hrs.), 0.08 meg/ml; in the data set with Candida albicans [3] (strain 403, 24 hrs.) it was 0.03 meg/ml; in the data set with Candida albicans [3] (strain 403, 48 hrs.), 0.08 meg/ml. Moreover, the “Minimum Inhibitory Concentration (M.I.C.)” value with Candida albicans [3] (strain 404, 24 hrs.) was determined as 0.8 meg/ml; in the data set with Candida albicans [3] (strain 404, 48 hrs.), 3.0 meg/ml; in the data set with Candida albicans [3] (strain 406, 24 hrs.) it was 0.03 meg/ml; with Candida albicans [3] (strain 406, 48 hrs.), 0.08 meg/ml; in the data set with Candida albicans [3] (strain 420, 24 hrs.), 3.0 meg/ml; in the data set on Candida albicans [3] (strain 420, 48 hrs.) it was 7.5 meg/ml. For the same compound, the “Minimum Inhibitory Concentration (M.I.C.)” value in the data set on Terulopsis glabrata (strain 1, 24 hrs.) was 0.03 meg/ml; in the data set on Terulopsis glabrata (strain 1, 48 hrs.), 0.3 meg/ml; with Terulopsis glabrata (strain 2, 24 hrs.) it was 0.03 meg/ml; with Terulopsis glabrata (strain 2, 48 hrs.), 0.08 meg/ml; in the data set with Terulopsis glabrata (strain 3, 24 hrs.), 0.03 meg/ml; in the data set on Terulopsis glabrata (strain 3, 48 hrs.), 0.08 meg/ml. Also, the “Minimum Inhibitory Concentration (M.I.C.)” value is on record as 0.03 meg/ml in the data set with Terulopsis glabrata (strain 16, 24 hrs.); 0.3 meg/ml in the data set on Terulopsis glabrata (strain 16, 48 hrs.); 0.03 meg/ml in the data set on Terulopsis glabrata (strain 17, 24 hrs.); 0.08 meg/ml with Terulopsis glabrata (strain 17, 48 hrs.); 17.5 meg/ml in data set [4] (strain 1A); 25 meg/ml in [4] (strain 17). The “Minimum Inhibitory Concentration (M.I.C.)” value is listed as 7.5 meg/ml with Aspergillus niger and 25 meg/ml in the data set on Trichophyton soudanese. Besides, the PD50 with Candida albicans [5] (Test 1, Oral) amounted to 25 mg/kg; with Candida albicans [5] (Test 1, Subcutaneous), 5 mg/kg; in the data set on Candida albicans [5] (Test 2, Oral), 5 mg/kg; in the data set on Candida albicans [5] (Test 2, Subcutaneous), 5 mg/kg; in the data set on Candida albicans [5] (Test 3, Subcutaneous), 25 mg/kg; in the data set on Candida albicans [5] (Test 4, Oral) it was 40 mg/kg. This compound also came in with a PD50 in the data set on Candida albicans [5] (Test 4, Subcutaneous) of 2.5 mg/kg. The results for the LD50 in the data set with mice (I.P.) and in the data set on mice (S.C.) were 8 to 22 mg/kg and 300 mg/kg, respectively.
